Assay results: the supplement of paper PMC8671470

Columns and labels:
Settings in all cases: 72 h
[1] = test system: myeloid leukemia patient primary cells Pat.10; experiment: area under dose-response curve (viability, 1 nM-10 uM) (fraction (0-1)); higher = more sensitive
How it was run: (§1)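 Seventy compounds were pre-printed on 384-well plates at five tenfold concentrations between 1 and 10,000 nM, in duplicate. Thawed mononuclear cells purified by Ficoll from AML or CML patients were added at 10,000 cells/well in RPMI 1640 with 10% FBS for 72 h. Viability by CellTiter-Glo was normalised to DMSO and 10 μM proteasome-inhibitor wells. Where stated, area under the curve was taken from log-logistic fits made with the drc and PharmacoGx R packages, each fit having four parameters.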

[2] = test system: myeloid leukemia patient primary cells Pat.11; experiment: as above
How it was run: as §1

[3] = test system: myeloid leukemia patient primary cells Pat.12; experiment: as above
How it was run: as §1

[4] = test system: myeloid leukemia patient primary cells Pat.13; experiment: as above
How it was run: as §1

[5] = test system: myeloid leukemia patient primary cells Pat.14; experiment: as above
How it was run: as §1

[6] = test system: myeloid leukemia patient primary cells Pat.15; experiment: as above
How it was run: as §1

[7] = test system: myeloid leukemia patient primary cells Pat.1; experiment: as above
How it was run: as §1

[8] = test system: myeloid leukemia patient primary cells Pat.2; experiment: as above
How it was run: as §1

[9] = test system: myeloid leukemia patient primary cells Pat.3; experiment: as above
How it was run: as §1

[10] = test system: myeloid leukemia patient primary cells Pat.5; experiment: as above
How it was run: as §1

[11] = test system: myeloid leukemia patient primary cells Pat.6; experiment: as above
How it was run: as §1

[12] = test system: myeloid leukemia patient primary cells Pat.7; experiment: as above
How it was run: as §1

[13] = test system: myeloid leukemia patient primary cells Pat.8; experiment: as above
How it was run: as §1

[14] = test system: myeloid leukemia patient primary cells Pat.9; experiment: as above
How it was run: as §1

Mono-Mac-6 = experiment: cell viability (% survival relative to DMSO control); higher = less cytotoxic
Experimental: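 8x8 drug-combination matrices (0–5000 nM; rosiglitazone and lestaurtinib 0–1000 nM) were run in Mono-Mac-6 cells for 72 h with CellTiter-Glo read-out. Survival is normalised to DMSO and 10 µM bortezomib and clipped at 100%.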

O=C(O)C1=CC(=C(c2ccc(O)c(C(=O)O)c2)c2ccc(O)c(C(=O)O)c2)C=CC1=O [Aurintricarboxylic acid]
Settings | area under dose-response curve
[1] | < 0.0301
[2] | < 0.0301
[3] | < 0.0301
[4] | < 0.0301
[5] | < 0.0301
[6] | < 0.0301
[7] | < 0.0301
[8] | < 0.0301
[9] | 0.0466
[10] | < 0.0301
[11] | < 0.0301
[12] | < 0.0301
[13] | < 0.0301
[14] | < 0.0301

O=C(C1CC1)N1CC[C@@H](C=C2NNC(=O)N2c2ccc(-c3ccc4occc4c3)cc2)C1 + C[C@H](NC(=O)c1sccc1OCc1ccc(Cl)cc1)c1ccccc1 [as1949490]
cell viability [%], Mono-Mac-6
Settings | drug1 concentration 5 nM | drug1 concentration 10 nM | drug1 concentration 50 nM | drug1 concentration 100 nM | drug1 concentration 500 nM | drug1 concentration 1000 nM | drug1 concentration 5000 nM
drug2 concentration 5 nM | 77.9 | > 100 | 94.8 | 82.5 | > 100 | 88.6 | 91.3
drug2 concentration 10 nM | > 100 | > 100 | > 100 | 84.4 | > 100 | 98.4 | > 100
drug2 concentration 50 nM | > 100 | > 100 | > 100 | > 100 | 88.9 | 91.8 | > 100
drug2 concentration 100 nM | 90 | 96.4 | > 100 | 94.7 | 77.3 | > 100 | 69.7
drug2 concentration 500 nM | 90.5 | 78 | 74.2 | > 100 | > 100 | > 100 | 80.7
drug2 concentration 1000 nM | 95 | > 100 | 97.3 | > 100 | 77.3 | 91.1 | 75.6
drug2 concentration 5000 nM | 79 | 73.5 | > 100 | 96.3 | 73.3 | 91.3 | 54.6

O=C(O)Cn1nnc(-c2cc(N3CCC(Oc4cc(F)ccc4Br)CC3)no2)n1 [MK-8245]
Settings | area under dose-response curve
[1] | 0.205
[2] | < 0.0301
[3] | < 0.0301
[4] | < 0.0301
[5] | < 0.0301
[6] | < 0.0301
[7] | < 0.0301
[8] | < 0.0301
[9] | 0.0756
[10] | 0.0448
[11] | < 0.0301
[12] | < 0.0301
[13] | < 0.0301
[14] | < 0.0301

Cc1c(-c2ccc(-c3ccccc3F)cc2)nc2ccc(F)cc2c1C(=O)O [Brequinar]
Settings | area under dose-response curve
[2] | < 0.0301
[3] | < 0.0301
[4] | < 0.0301
[5] | 0.142
[6] | < 0.0301
[7] | < 0.0301
[8] | < 0.0301
[9] | 0.588
[10] | 0.433
[11] | < 0.0301
[13] | < 0.0301
[14] | 0.532

C=C(C)[C@H]1Cc2c(ccc3c2O[C@@H]2COc4cc(OC)c(OC)cc4[C@@H]2C3=O)O1 [Rotenone]
Settings | area under dose-response curve
[1] | 0.411
[2] | < 0.0301
[3] | 0.0808
[4] | 0.391
[5] | 0.41
[6] | 0.465
[7] | 0.112
[9] | 0.57
[10] | 0.99
[11] | 0.399
[12] | 0.329
[13] | 0.322
[14] | 0.55

CC(C)c1onc(-c2c(Cl)cccc2Cl)c1COc1ccc(/C=C/c2cccc(C(=O)O)c2)c(Cl)c1 [GW4064] + Cn1cc(-c2ccncc2)c(-c2ccc(OCc3ccc4ccccc4n3)cc2)n1 [PF-02545920]
cell viability [%], Mono-Mac-6
Settings | drug1 concentration 5 nM | drug1 concentration 10 nM | drug1 concentration 50 nM | drug1 concentration 100 nM | drug1 concentration 500 nM | drug1 concentration 1000 nM | drug1 concentration 5000 nM
drug2 concentration 5 nM | > 100 | > 100 | > 100 | 85.7 | 80.4 | 88.9 | > 100
drug2 concentration 10 nM | 92.5 | > 100 | 79.3 | 78.5 | 87.6 | 94.3 | 99.8
drug2 concentration 50 nM | > 100 | > 100 | > 100 | 86 | 97.2 | 66.9 | 99.9
drug2 concentration 100 nM | > 100 | 90.5 | > 100 | 86.8 | > 100 | > 100 | 82.2
drug2 concentration 500 nM | 81.2 | 69.3 | > 100 | > 100 | 94.8 | 87.9 | > 100
drug2 concentration 1000 nM | 93.3 | > 100 | 77.2 | 98.6 | 96.1 | 89.8 | 81.4
drug2 concentration 5000 nM | 74.5 | 91.6 | 65 | 76.7 | 96.5 | 85.1 | 87.7

O=C(C1CC1)N1CC[C@@H](C=C2NNC(=O)N2c2ccc(-c3ccc4occc4c3)cc2)C1 + CS(=O)(=O)N1CCN(Cc2cc3nc(-c4cccc5[nH]ncc45)nc(N4CCOCC4)c3s2)CC1 [Pictilisib]
cell viability [%], Mono-Mac-6
Settings | drug1 concentration 5 nM | drug1 concentration 10 nM | drug1 concentration 50 nM | drug1 concentration 100 nM | drug1 concentration 500 nM | drug1 concentration 1000 nM | drug1 concentration 5000 nM
drug2 concentration 5 nM | > 100 | 94.2 | 88.6 | 86.5 | 92.2 | 81.2 | 88.3
drug2 concentration 10 nM | 89.9 | > 100 | 85.6 | 81 | 78.2 | 81.2 | 93.1
drug2 concentration 50 nM | 80.5 | > 100 | 81.7 | 69.7 | 74.8 | 99 | 68.1
drug2 concentration 100 nM | 63 | 75.5 | 91.8 | 75.3 | > 100 | 94.4 | 84.6
drug2 concentration 500 nM | 70 | 83.9 | > 100 | 87.7 | 73 | 86.2 | 81.4
drug2 concentration 1000 nM | 53.7 | 71 | 52.4 | 87.1 | 71.3 | 77.1 | 69.4
drug2 concentration 5000 nM | 51.6 | 27.5 | 37.5 | 48.3 | 49.9 | 24.2 | 49.3
